Data: US7794994B2 (Kemeta, LLC, priority 2001, dated 2010)
Like-named read-outs stand apart in the source and are kept apart here.

Legend:
[1] = tested on: 3-enzyme system (S-ADH coupled to lactate dehydrogenase and pyruvate oxidase); experiment: S-ADH coupled to H2O2 formation electrochemical assay (3-enzyme system), interference compounds; assay type: biochemical, X. autotrophicus Py2; conditions: for interference with the acetone measurement (current response): Acetone plus 10 mM ethanol, 50 μM isopropanol or 50 μM isobutanol, data not shown
Description: Secondary alcohol dehydrogenase coupled to H2O2 formation electrochemical assay. […] Before measurements the electrode surface was polished using Al2O3 paste for 1 min. and then rinsed with deionized water, sonicated for 1 min. and rinsed with water again. The polished Pt electrode was then pretreated electrochemically by applying 10 cycles of 100 mV/s from +200 mV to +900 mV. All potentials were referenced versus a Ag/AgCl electrode (BAS part number MF-2078). Assays contained potassium phosphate (100 mM, pH 7.2), purified S-ADH (1 U/mL), NADH (201 μM), lactate (100 mM), lactate dehydrogenase (5 U/mL), pyruvate oxidase (4 U/mL), flavin adenine dinucleotide (0.01 mM), cocarboxylase (0.2 mM), in a total volume of 0.5 mL. […] After a 2 min. incubation period, the potential was stepped from open circuit to 350 mV.

[2] = tested on: S-ADH from Pseudomonas species 6307; conditions: cited from earlier work
[3] = target: T1, acetone carboxylase from X. autotrophicus strain Py2 (Xanthobacter versatilis, UniProt Q8RM03+Q8RM04); conditions: cited from earlier work
T1 sequence (Q8RM03 1-776): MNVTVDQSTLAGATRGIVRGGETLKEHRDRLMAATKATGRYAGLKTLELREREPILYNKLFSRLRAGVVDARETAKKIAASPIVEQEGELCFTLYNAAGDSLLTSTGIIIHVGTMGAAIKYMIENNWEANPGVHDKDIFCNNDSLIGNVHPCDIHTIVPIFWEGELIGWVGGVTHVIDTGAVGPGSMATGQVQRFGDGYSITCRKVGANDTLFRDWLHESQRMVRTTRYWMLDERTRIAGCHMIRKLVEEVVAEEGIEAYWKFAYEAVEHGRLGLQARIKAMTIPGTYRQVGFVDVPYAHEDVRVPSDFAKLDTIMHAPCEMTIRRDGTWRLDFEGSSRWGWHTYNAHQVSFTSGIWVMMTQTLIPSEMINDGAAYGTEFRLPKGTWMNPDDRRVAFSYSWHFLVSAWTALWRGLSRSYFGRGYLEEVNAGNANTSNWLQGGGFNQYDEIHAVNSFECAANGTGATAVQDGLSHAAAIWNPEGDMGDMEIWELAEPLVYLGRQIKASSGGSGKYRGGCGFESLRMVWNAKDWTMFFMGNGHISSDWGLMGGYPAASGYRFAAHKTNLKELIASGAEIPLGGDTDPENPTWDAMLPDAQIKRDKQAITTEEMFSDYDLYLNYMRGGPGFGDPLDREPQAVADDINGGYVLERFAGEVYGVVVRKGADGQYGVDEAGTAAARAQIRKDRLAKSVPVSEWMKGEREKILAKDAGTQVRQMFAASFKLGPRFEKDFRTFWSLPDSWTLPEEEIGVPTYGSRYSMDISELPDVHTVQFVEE
T1 sequence (Q8RM04 1-717): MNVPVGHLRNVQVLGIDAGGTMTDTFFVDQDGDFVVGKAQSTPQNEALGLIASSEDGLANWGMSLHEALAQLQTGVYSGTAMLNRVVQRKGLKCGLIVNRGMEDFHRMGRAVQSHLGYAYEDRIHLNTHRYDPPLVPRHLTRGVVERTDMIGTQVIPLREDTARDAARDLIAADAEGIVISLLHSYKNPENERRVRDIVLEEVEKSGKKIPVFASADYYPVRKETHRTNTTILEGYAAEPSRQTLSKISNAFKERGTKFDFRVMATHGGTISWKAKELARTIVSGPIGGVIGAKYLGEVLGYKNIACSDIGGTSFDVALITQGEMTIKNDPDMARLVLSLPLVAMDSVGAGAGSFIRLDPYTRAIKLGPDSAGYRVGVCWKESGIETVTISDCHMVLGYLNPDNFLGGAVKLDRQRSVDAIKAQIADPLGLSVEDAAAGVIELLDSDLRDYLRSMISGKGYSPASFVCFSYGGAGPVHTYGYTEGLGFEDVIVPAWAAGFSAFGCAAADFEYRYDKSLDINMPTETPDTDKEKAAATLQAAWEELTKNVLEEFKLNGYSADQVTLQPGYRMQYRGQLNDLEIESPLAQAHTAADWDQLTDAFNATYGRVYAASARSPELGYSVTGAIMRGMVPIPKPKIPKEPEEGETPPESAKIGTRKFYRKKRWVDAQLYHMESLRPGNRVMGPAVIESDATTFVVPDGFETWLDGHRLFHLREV
T1 sequence (Q8RM02 2-168 partner limits assumed): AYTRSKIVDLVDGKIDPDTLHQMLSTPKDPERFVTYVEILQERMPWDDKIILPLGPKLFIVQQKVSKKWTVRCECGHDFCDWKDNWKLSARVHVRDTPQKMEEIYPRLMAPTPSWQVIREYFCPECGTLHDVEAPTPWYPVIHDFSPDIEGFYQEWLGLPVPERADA

[4] = as reported by NIST; cited from earlier work
[5] = tested on: acetone carboxylase from Rhodobacter capsulatus strain B10; conditions: cited from earlier work
[6] = tested on: secondary alcohol dehydrogenase from R. rhodochrous PNKb1; conditions: R. rhodochrous PNKb1 enzyme; cited from earlier work

CCO [Ethanol]
interference with the acetone measurement (current response) [1]: do not interfere | inhibition by ethanol ([2]; in the presence of 10 mM ethanol): 0% | inhibition by ethanol ([2]; in the presence of 100 mM ethanol): 30%

CCC(C)=O [2-Butanone]
current response relative to acetone ([1]; 50 μM butanone): equivalent to 50 μM acetone | carboxylation rate relative to that of acetone [3]: 40%

CC(C)=O [Acetone, acetone]
Henry's Law constant [4]: 24 M·atm^−1 | Vmax [3]: 0.206 μmol acetone consumed·min^−1·mg^−1 protein | Km ([3]; read-out: apparent Km): 0.0078 mM | Km [5]: 0.0082 mM | Vmax [5]: 0.291 μmol acetone consumed·min^−1mg^−1 protein

CCCO [1-Propanol]
Km [6]: 18 mM

CC(C)O [2-Propanol]
interference with the acetone measurement (current response) [1]: do not interfere | Km [6]: 12 mM
